Assay results reported in patent publication US6706664B1, “Benzoxazole compounds, process for the preparation thereof and herbicides” (UBE Industries, Ltd., priority 1999, dated 2004).

Legend:
Design in all cases: key: 0: normal development; 1: Less damaged; 2: Slightly damaged; 3: Moderately damaged; 4: Severely damaged; 5: All killed
barnyardgrass [1] = experiment: Soil treatment test for upland field; format: in vivo, Echinochloa crusgalli; conditions: 500 g/ha, glass house 25° C., 3 weeks
Outline: (§1)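 Compounds were formulated as wettable powders and applied pre-emergence to the surface of freshly sown alluvial soil at 500 g/ha. After three weeks in a glass house averaging 25° C, damage was rated from 0 (normal development) to 5 (all killed).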

blackgrass [2] = experiment: Foliar spread test for upland field; format: in vivo, Alopecurus aegualis; conditions: foliar spray 500 ppm, 3 weeks, rank vs non-treated
Outline: (§2)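 Crops and weeds grown about 2 weeks in volcanic ash soil in a glasshouse, then sprayed with wettable-powder formulations diluted to 500 ppm in water with 0.5% surfactant. After 3 weeks at 25 °C, injury scored visually 0 (normal) to 5 (all killed).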

green foxtail [3] = experiment: Soil treatment test for upland field; format: in vivo, Setaria viridis; conditions: 500 g/ha, glass house 25° C., 3 weeks
Outline: as §1

livid amaranth = experiment: Foliar spread test for upland field; format: in vivo, Amaranthus lividus; conditions: foliar spray 500 ppm, 3 weeks, rank vs non-treated
Outline: as §2

common lambsquartes [4] = experiment: Soil treatment test for upland field; format: in vivo, Chenopodium album; conditions: 500 g/ha, glass house 25° C., 3 weeks
Outline: as §1

sugar beat = experiment: Foliar spread test for upland field; format: in vivo; conditions: foliar spray 500 ppm, 3 weeks, rank vs non-treated
Outline: (§3)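 Wettable powders at 500 ppm, with 0.5% surfactant, were sprayed uniformly over plants raised for roughly 2 weeks in glasshouse pots of volcanic ash soil. Herbicidal damage rated on a 0–5 scale (5 = all killed) after a further 3 weeks at an average 25 °C.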

corn = experiment: Foliar spread test for upland field; format: in vivo; conditions: foliar spray 500 ppm, 3 weeks, rank vs non-treated
Outline: as §3

solgum = experiment: Foliar spread test for upland field; format: in vivo; conditions: foliar spray 500 ppm, 3 weeks, rank vs non-treated
Outline: as §3

wheat = experiment: Foliar spread test for upland field; format: in vivo; conditions: foliar spray 500 ppm, 3 weeks, rank vs non-treated
Outline: as §3

barnyardgrass [5] = experiment: Herbicidal test for paddy field; format: in vivo, Echinochloa crusgalli; conditions: paddy field pot, 500 g/ha dropwise at 1.5 leaf stage of barnyardgrass, 3 weeks, rank vs non-treated
Outline: (§4)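 Flooded pots (3 cm water) of alluvial soil were sown with seeds or tubers, and wettable-powder formulations in 0.05% surfactant water were dripped in at 500 g/ha at the 1.5-leaf stage of barnyardgrass. Plants were kept 3 weeks in a glasshouse at an average 25° C. Damage was scored 0 (normal) to 5 (all killed) against untreated controls.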

blackgrass [6] = experiment: Soil treatment test for upland field; format: in vivo, Alopecurus aegualis; conditions: 500 g/ha, glass house 25° C., 3 weeks
Outline: as §1

velvetleaf [7] = experiment: Soil treatment test for upland field; format: in vivo, Abutilon theophrasti; conditions: 500 g/ha, glass house 25° C., 3 weeks
Outline: as §1

green foxtail [8] = experiment: Foliar spread test for upland field; format: in vivo, Setaria viridis; conditions: foliar spray 500 ppm, 3 weeks, rank vs non-treated
Outline: as §2

common lambsquartes [9] = experiment: Foliar spread test for upland field; format: in vivo, Chenopodium album; conditions: foliar spray 500 ppm, 3 weeks, rank vs non-treated
Outline: as §2

annual bluegrass [10] = experiment: Soil treatment test for upland field; format: in vivo, Poa annua; conditions: 500 g/ha, glass house 25° C., 3 weeks
Outline: as §1

morning glory = experiment: Foliar spread test for upland field; format: in vivo, Ipomoea spps.; conditions: foliar spray 500 ppm, 3 weeks, rank vs non-treated
Outline: as §2

young rice plant = experiment: Herbicidal test for paddy field; format: in vivo; conditions: paddy field pot, 500 g/ha dropwise at 1.5 leaf stage of barnyardgrass, 3 weeks, rank vs non-treated
Outline: as §4

annual bluegrass [11] = experiment: Foliar spread test for upland field; format: in vivo, Poa annua; conditions: foliar spray 500 ppm, 3 weeks, rank vs non-treated
Outline: as §2

velvetleaf [12] = experiment: Foliar spread test for upland field; format: in vivo, Abutilon theophrasti; conditions: foliar spray 500 ppm, 3 weeks, rank vs non-treated
Outline: as §2

Structure (SMILES)	Effects Barnyardgrass (barnyardgrass [1])	Effects Blackgrass (blackgrass [2])	Effects Green foxtail (green foxtail [3])	Effects Livid amaranth (livid amaranth)	Effects Common lambsquarters (common lambsquartes [4])	Effects Sugar beat (sugar beat)	Effects Corn (corn)	Effects Solgum (solgum)	Effects Wheat (wheat)	Effect Barnyardgrass (barnyardgrass [5])	Effects Blackgrass (blackgrass [6])	Effects Velvetleaf (velvetleaf [7])	Effects Green foxtail (green foxtail [8])	Effects Common lambsquarters (common lambsquartes [9])	Effects Annual bluegrass (annual bluegrass [10])	Effects Morning glory (morning glory)	Effect Young rice plant (young rice plant)	Effects Annual bluegrass (annual bluegrass [11])	Effects Velvetleaf (velvetleaf [12])
CCC(Oc1cccc(C(F)(F)F)c1)c1nc2cc(F)ccc2o1 (stereo not shown) [Compound 120]	4	2	5	5	4	5	3	2	2	4	3	3	3	4	5	5	1	1	
CCC(Oc1ccc(F)c(C(F)(F)F)c1)c1nc2cc(Cl)ccc2o1 (stereo not shown) [Compound 139]	3	2	5	5	4		3	2	2	5	5	5	4	5	5	5	2	3	3
CCC(Oc1cccc(C(F)(F)F)c1)c1nc2cc(Cl)ccc2o1 (stereo not shown) [Compound 140]	4	2	5	4	4	3	3	2	2	5	4	1	2	4	5	3	1	2	2
CCCC(Oc1ccc(F)c(C(F)(F)F)c1)c1nc2cc(Cl)ccc2o1 (stereo not shown) [Compound 141]	3	4	5	4	5		2	1	2	5	5	5	4	4	5	4	1	4	4
CCC(Oc1ccc(F)c(C(F)(F)F)c1)c1nc2cc(Br)ccc2o1 (stereo not shown) [Compound 165]	5	3	5	4	3		2	2	2	4	4	1	4	3	5	4	2	2	3
CCC(Oc1ccc(F)c(C(F)(F)F)c1)c1nc2cc([N+](=O)[O-])ccc2o1 (stereo not shown) [Compound 177]	3	2	5	5	4		2	2	2	5	5	5	5	4	5	5	2	4	4
CCC(Oc1ccc(F)c(C(F)(F)F)c1)c1nc2cc(C(F)(F)F)ccc2o1 (stereo not shown) [Compound 197]	5	4	5	4	4		4	2	2	4	5	5	5	4	5	4	3	2	3
CCC(Oc1ccc(Cl)c(C(F)(F)F)c1)c1nc2cc(F)ccc2o1 (stereo not shown) [Compound 441]	5	2	5	3	4	4	2	2	2	5	3	1	3	3	5	1	1	1	
CCC(Oc1cccc(C(F)(F)F)c1)c1nc2cc(F)c(C(F)(F)F)cc2o1 (stereo not shown) [Compound 471]	5	3	5	5	5	5	2	3	2	5	5	5	5	5	5	5		3	3
CCCC(Oc1cccc(C(F)(F)F)c1)c1nc2cc(F)c(C(F)(F)F)cc2o1 (stereo not shown) [Compound 474]	5	2	5	5	5	5	2	2	2	2	5	5	5	5	5	5		3	2
